# Values of other authors, collected in US20240091144A1, “MULTI-LAYER ORAL THIN FILM” (LTS Lohmann Therapie-Systeme AG, priority 2021, published 2024).
# Columns and labels:
# [1] = compared with (R)-ketamine
# [2] = at 20° C.
SMILES,analgesic and anaesthetic potency relative to the (R) form [1],pKs [2]
"CNC1(c2ccccc2Cl)CCCCC1=O (racemic) [(S)-ketamine, (S)-(±)-2-(2-chlorophenyl)-2-(methylamino)cyclohexan-1-one]",approximately three times higher,
"NC(CO)(CO)CO [TRIS, tris(hydroxymethyl)aminomethane]",,8.2
